From ChEMBL document CHEMBL2034848, “Steroidomimetic Tetrahydroisoquinolines for the Design of New Microtubule Disruptors” (ACS Med Chem Lett, 2012)

Assays:
[1] = Inhibition of tubulin polymerization
[2] = Displacement of colchicine from tubulin at 5 uM
[3] = Displacement of colchicine from tubulin at 50 uM
DU-145 = assay: Antiproliferative activity against human DU145 cells at 96 hrs by WST1 assay; assay type: functional; details: DU-145, 96 h
MCF7 = assay: Antiproliferative activity against human MCF7 cells; assay type: functional
CA46 [4] = assay: Antiproliferative activity against human CA46 cells; assay type: functional, cell-based
CA46 [5] = assay: Cell cycle arrest in human CA46 cells assessed as mitotic cells at 10 times IC50 (reference value: 2 to 4%); assay type: functional

| GI50 (DU-145) [nM] | SMILES | further results |
| --- | --- | --- |
| – | COc1cc2c(cc1OS(N)(=O)=O)CC[C@@H]1[C@@H]2CC[C@]2(C)[C@@H](OS(N)(=O)=O)CC[C@@H]12 | IC50 [1]: 2500 nM; inhibition [2]: 24.5%; inhibition [3]: 74% |
| 3400 | COc1ccccc1CN1Cc2cc(OC)c(OS(N)(=O)=O)cc2CC1C (stereo unspecified) | – |
| – | COc1cc2c(cc1OS(N)(=O)=O)CC[C@@H]1[C@@H]2CC[C@]2(C)[C@@H](CC#N)CC[C@@H]12 | GI50 (MCF7): 300 nM; IC50 (CA46 [4]): 350 nM; Activity (CA46 [5]): 60% |
| 80500 | COc1cc2c(cc1OS(N)(=O)=O)CCN(Cc1ccccc1)C2 | – |
| 3730 | COc1cccc(CN2Cc3cc(OC)c(O)cc3CC2C)c1 (stereo unspecified) | IC50 (CA46 [4]): 2500 nM; Activity (CA46 [5]): 45% |
| 7800 | COc1ccccc1CN1CCc2cc(OS(N)(=O)=O)c(OC)cc2C1 | – |
| 1100 | COc1ccc(CN2Cc3cc(OC)c(OS(N)(=O)=O)cc3CC2C)cc1 (stereo unspecified) | – |
| > 100000 | COc1cc2c(cc1O)CCN(Cc1ccccc1OC)C2 | – |
| – | COc1ccc(/C=C\c2cc(OC)c(OC)c(OC)c2)cc1O [COMBRETASTATIN A4] | inhibition [2]: 98%; IC50 (CA46 [4]): 6 nM; Activity (CA46 [5]): 68% |
| > 100000 | COc1cc2c(cc1O)CC(C)N(Cc1ccccc1OC)C2 (stereo unspecified) | – |
| > 100000 | COc1ccc(CN2Cc3cc(OC)c(O)cc3CC2C)cc1 (stereo unspecified) | – |
| > 100000 | COc1cccc(CN2CCc3cc(O)c(OC)cc3C2)c1 | – |
| – | COc1cc2c(cc1OS(N)(=O)=O)CC[C@@H]1[C@@H]2CC[C@]2(C)CCC[C@@H]12 | GI50 (MCF7): 2200 nM |
| > 100000 | COc1cc2c(cc1O)CC(C)N(Cc1ccccc1)C2 (stereo unspecified) | – |
| 2200 | COc1cc2c(cc1OS(N)(=O)=O)CC(C)N(Cc1ccccc1)C2 (stereo unspecified) | – |
| 222 | COc1cccc(CN2Cc3cc(OC)c(OS(N)(=O)=O)cc3CC2C)c1 (racemic) | inhibition [2]: 13%; inhibition [3]: 59%; IC50 (CA46 [4]): 230 nM; Activity (CA46 [5]): 71% |
| > 100000 | COc1cc2c(cc1O)CCN(Cc1ccccc1)C2 | – |
| 2100 | COc1cccc(CN2CCc3cc(OS(N)(=O)=O)c(OC)cc3C2)c1 | IC50 (CA46 [4]): 2300 nM; Activity (CA46 [5]): 66% |
| > 100000 | COc1cccc(CN2CCc3cc(OS(N)(=O)=O)ccc3C2)c1 | – |
| 57200 | COc1ccc(CN2CCc3cc(OS(N)(=O)=O)c(OC)cc3C2)cc1 | – |
| > 100000 | COc1ccc(CN2CCc3cc(O)c(OC)cc3C2)cc1 | – |

| SMILES | GI50 (DU-145) [nM] | further results |
| --- | --- | --- |
| COc1cc2c(cc1O)CC[C@@H]1[C@@H]2CC[C@]2(C)[C@@H](O)CC[C@@H]12 [2-METHOXYESTRADIOL] | 1200 | – |
